# From PubChem BioAssay (NCI)
# Where “and” joins values, the source holds several entries; their conditions need not be identical. Identical values can stand only once.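 1) Cells in 96-well plates. 2) Compound, 48 h, 5 concentrations. 3) Linear interpolation between surrounding doses. 4) Unreached endpoint = highest concentration. The concentration for 50% growth inhibition is given as GI50. TGI denotes the concentration required for complete inhibition of growth.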
# Legend:
# Test in all cases: DTP human tumour cell line panel, 48 h
# A498 renal = system: A498 renal
# HCT-15 colon = system: HCT-15 colon
# RXF 393 renal = system: RXF 393 renal
# HOP-62 NSCLC = system: HOP-62 NSCLC
# UO-31 renal = system: UO-31 renal
# SF-539 CNS = system: SF-539 CNS
# SK-OV-3 ovarian = system: SK-OV-3 ovarian
# CCRF-CEM leukemia = system: CCRF-CEM leukemia
# HCC-2998 colon = system: HCC-2998 colon
# TK-10 renal = system: TK-10 renal
SMILES,GI50 (A498 renal) [µM],TGI (A498 renal) [µM],GI50 (HCT-15 colon) [µM],TGI (HCT-15 colon) [µM],GI50 (RXF 393 renal) [µM],TGI (RXF 393 renal),GI50 (HOP-62 NSCLC) [µM],TGI (HOP-62 NSCLC),GI50 (UO-31 renal) [µM],TGI (UO-31 renal) [µM],GI50 (SF-539 CNS) [µM],TGI (SF-539 CNS),GI50 (SK-OV-3 ovarian) [µM],TGI (SK-OV-3 ovarian) [µM],GI50 (CCRF-CEM leukemia) [µM],TGI (CCRF-CEM leukemia) [µM],GI50 (HCC-2998 colon) [µM],TGI (HCC-2998 colon) [µM],GI50 (TK-10 renal) [µM],TGI (TK-10 renal) [µM]
CN[C@]12CC3(C=CC(=O)C=C3)O[C@@]1(Cc1ccc(OC)cc1)N(C)C(=O)N2,16.2,31.6,1.64,10.3,1.82,3.6 µM,2.48,11.2 µM,1.47,2.89,1.9,3.97 µM,5.12,44.2,1.8,3.72,1.93,3.61,2.48,6.72
Cn1ncc2c(/N=C/c3cccs3)[nH]c(=S)nc21,0.689,27.5,42.4,> 100,26.2,> 73.3 µM,52.9,> 93.8 µM,58.6,> 100,32.2,> 100 µM,80,> 100,55.7,> 100,32.9,> 100,40.6,> 85.2
COC(=O)C(C)NP(=O)(OCc1ccc(Cn2cnc3c(=O)[nH]c(N)nc32)cc1)Oc1ccccc1 (centres undefined),> 100,> 100,> 100,> 100,> 100,> 100 µM,> 100,> 100 µM,> 100,> 100,> 100,> 100 µM,> 100,> 100,> 100,> 100,> 100,> 100,> 100,> 100
COc1cc(/C=C/C(=O)c2ccc(Nc3ncnc4ccccc34)cc2)cc(OC)c1,5.86,> 100,7.63,48.7,2.11,9.32 µM,7.13,22.1 µM,10.5,28.6,4.98,18 µM,3.6,10.7,4.04,22.8,1.79,3.38,8.4,24.4
COc1cc2ccc3c4c(OC)cc(OC)c(OC)c4c(=O)n(C)c3c2cc1OC,–,16.7,1.87,–,3.44,16.7 µM and > 44.7 µM,1.4,7.11 µM and > 43.5 µM,–,> 48.9,2.74,10.5 µM and > 47.4 µM,–,> 47.8,0.486,2.04,–,> 36.1,> 16.7,> 54.6
C=C1C(=O)O[C@H]2[C@H]1CC/C(COC(=O)CCCCCCCCC(=O)OC/C1=C/CC[C@@]3(C)O[C@H]3[C@H]3OC(=O)C(=C)[C@@H]3CC1)=C\CC[C@@]1(C)O[C@@H]21,5.82,18,1.91,4.47,1.86,3.42 µM,2.03,4.65 µM,1.47,2.95,1.9,3.95 µM,12,25.2,2.02,11.8,1.9,3.58,2.47,4.74
O=C1CCCC2=C(N1)C(=O)C=CC2=O,–,> 70.4,–,62.6,–,62.9 µM,–,61.9 µM,–,57.9,–,59.1 µM,–,> 100,–,28.5,–,> 100,–,56.9
CN(C)CCCN(c1nc(C(Cl)(Cl)Cl)ns1)c1nc(C(Cl)(Cl)Cl)ns1,1.92,4.89,1.88,4.08,1.81,3.21 µM,1.64,3.07 µM,1.47,3.08,1.91,3.8 µM,1.88,4,2.45,8.03,1.69,3.31,1.93,3.58
CCOC(=O)c1c(C)nc2ccc(Cl)cc2c1-c1ccccc1,15.5,33.4,16.9,44.6,17.3,47.4 µM,15,31.7 µM,14.8,31.1,19.6,39.9 µM,19.1,45.6,18.8,48.9,19.4,46.9,34.4,> 100
O=C(Nc1ccccc1)Nc1cccc(-n2cc(-c3ccncc3)c(-c3ccc(O)c(Cl)c3)n2)c1,2.5,8.37,2.84,> 100,2.43,9.63 µM,4.93,53.6 µM,3.43,31.8,1.96,4.5 µM,6.02,40.7,3.22,27.5,3.19,9.79,6.91,54.6
Cc1ccccc1NC(=O)C(=O)C(c1cnc2ccc([N+](=O)[O-])cc2n1)[N+](=O)[O-] (centres undefined),–,> 100,–,> 100,–,> 100 µM,–,> 100 µM,–,> 100,–,> 100 µM,–,> 100,–,> 100,–,> 100,–,> 100
CNNCc1ccc(C(=O)NC(C)C)cc1,–,> 500,> 500,> 500,> 500,> 500 µM,> 500,> 500 µM,–,> 500,–,> 500 µM,–,> 500,–,> 500,> 500,> 500,–,> 500
S=c1nc2[nH]ncc2c(N/N=C/c2ccccc2)[nH]1,15.3,73.4,81.3,> 100,> 100,> 100 µM,> 100,> 100 µM,> 100,> 100,> 100,> 100 µM,> 100,> 100,78.6,> 100,> 100,> 100,> 100,> 100
